# ChEMBL document CHEMBL5053556, “Design, Synthesis, and Biological Evaluation of a Novel Series of Teriflunomide Derivatives as Potent Human Dihydroorotate Dehydrogenase Inhibitors for Malignancy Treatment” (J Med Chem, 2021)
# Assays:
# [1] = Microsomal stability in rat liver microsomes assessed as half life at 1 uM measured upto 120 mins in presence of NADPH by LC-MS analysis; assay type: ADME, Microsome
# [2] = in vitro; conditions: human, L02 cells and Raji cells
# Description: Selectivity index, ratio of IC50 for human L02 cells to IC50 for human Raji cells
# [3] = Clearance in Sprague-Dawley rat at 5 mg/kg, iv measured after 48 hrs by LC-MS analysis; assay type: ADME, organism-based; conditions: Sprague-Dawley, in vivo
# [4] = Microsomal stability in human liver microsomes assessed as half life at 1 uM measured upto 120 mins in presence of NADPH by LC-MS analysis; assay type: ADME, Microsome
# [5] = Clearance in Sprague-Dawley rat at 15 mg/kg, po measured after 48 hrs by LC-MS analysis; assay type: ADME, organism-based; conditions: in vivo
# [6] = Plasma protein binding in rat at 10 uM incubated for 5 hrs by LC-MS analysis; assay type: ADME, cell-free; conditions: read-out: PPB (converted)
# [7] = test system: HEL; test: Antiproliferative activity against human HEL cells assessed as cell growth inhibition incubated for 96 hrs by MTT assay; assay type: functional, cell-based
# [8] = in vitro; conditions: human, Caco-2
# Description: Apparent permeability across basolateral to apical side in human Caco-2 cells incubated for 90 mins by LC-MS analysis
# [9] = Acute toxicity in BALB/c mouse assessed as effect on liver at 400 mg/kg, po measured on day 14 by H and E staining based assay; assay type: organism-based; conditions: in vivo, 336 h, time 14 day
# [10] = AUC(0 to t) in Sprague-Dawley rat at 15 mg/kg, po measured after 48 hrs by LC-MS analysis; assay type: ADME, organism-based; set-up: dose 15 mg/kg, time 48 hrs, route po; conditions: in vivo
# [11] = target: T1, Dihydroorotate dehydrogenase (quinone), mitochondrial (Homo sapiens, UniProt Q02127)
# Description: Inhibition of human DHODH using dihydroorotate substrate preincubated for 30 mins followed by substrate addition by DCIP based microplate reader analysis
# [12] = Half life in Sprague-Dawley rat at 15 mg/kg, po measured after 48 hrs by LC-MS analysis; assay type: ADME, organism-based; conditions: in vivo
# [13] = test system: THP-1; test: Antiproliferative activity against human THP-1 cells assessed as cell growth inhibition incubated for 96 hrs by MTT assay; assay type: functional, cell-based; conditions: THP-1, 96 h
# [14] = AUC(0 to t) in Sprague-Dawley rat at 5 mg/kg, iv measured after 48 hrs by LC-MS analysis; assay type: ADME, organism-based; set-up: time 48 hrs, dose 5 mg/kg, route iv; conditions: Sprague-Dawley, in vivo
# [15] = test system: HL-60; test: Antiproliferative activity against human HL-60 cells assessed as cell growth inhibition incubated for 96 hrs by MTT assay; assay type: functional, cell-based; conditions: HL-60, 96 h
# [16] = Acute toxicity in BALB/c mouse assessed as effect on kidney at 400 mg/kg, po measured on day 14 by H and E staining based assay; assay type: organism-based; conditions: in vivo, 336 h, time 14 day
# [17] = Acute toxicity in BALB/c mouse assessed effect on feeding at 400 mg/kg, po; assay type: organism-based; conditions: in vivo
# [18] = test system: SUD4; test: Antiproliferative activity against human SU-DHL-4 cells assessed as cell growth inhibition incubated for 96 hrs by MTT assay; assay type: functional, cell-based; conditions: SU-DHL-4, 96 h
# [19] = Acute toxicity in BALB/c mouse assessed as effect on spleen at 400 mg/kg, po measured on day 14 by H and E staining based assay; assay type: organism-based; conditions: in vivo, 336 h, time 14 day
# [20] = Acute toxicity in BALB/c mouse assessed as effect on heart at 400 mg/kg, po measured on day 14 by H and E staining based assay; assay type: organism-based; conditions: in vivo, 336 h, time 14 day
# [21] = Half life in Sprague-Dawley rat at 5 mg/kg, iv measured after 48 hrs by LC-MS analysis; assay type: ADME, organism-based; conditions: in vivo
# [22] = test system: SU-DHL-6; test: Antiproliferative activity against human SU-DHL-6 cells assessed as cell growth inhibition incubated for 96 hrs by MTT assay; assay type: functional, cell-based; conditions: SU-DHL-6, 96 h
# [23] = physchem; conditions: aqueous
# Description: Aqueous solubility of compound by UPLC method
# [24] = test system: Mus musculus; test: Toxicity in NOD-SCID mouse xenografted with human Raji cells assessed as change in UREAL at 40 mg/kg, po administered for 25 days; assay type: organism-based; conditions: in vivo, 600 h, time 25 day
# [25] = Acute toxicity in BALB/c mouse assessed change in behavior at 400 mg/kg, po; assay type: organism-based; conditions: in vivo
# [26] = test system: L02; test: cells; assay type: ADME, cell-based; conditions: Homo sapiens, L02, 96 h
# Description: Cytotoxicity against human L02 cells assessed as cell growth inhibition incubated for 96 hrs by MTT assay
# [27] = Acute toxicity in BALB/c mouse assessed as effect on lung at 400 mg/kg, po measured on day 14 by H and E staining based assay; assay type: organism-based; conditions: in vivo, 336 h, time 14 day
# [28] = Acute toxicity in BALB/c mouse assessed effect on body weight at 400 mg/kg, po; assay type: organism-based; conditions: in vivo
# [29] = Tmax in Sprague-Dawley rat at 15 mg/kg, po measured after 48 hrs by LC-MS analysis; assay type: ADME, organism-based; conditions: in vivo
# [30] = test system: Mus musculus; test: Toxicity in NOD-SCID mouse xenografted with human Raji cells assessed as change in AST level at 40 mg/kg, po administered for 25 days; assay type: organism-based; conditions: in vivo, 600 h, time 25 day
# [31] = test system: Daudi; test: Antiproliferative activity against human Daudi cells assessed as cell growth inhibition incubated for 96 hrs by MTT assay; assay type: functional, cell-based
# [32] = Microsomal stability in mouse liver microsomes assessed as half life at 1 uM measured upto 120 mins in presence of NADPH by LC-MS analysis; assay type: ADME, Microsome
# [33] = Plasma protein binding in rat at 0.1 uM incubated for 5 hrs by LC-MS analysis; assay type: ADME, cell-free; conditions: read-out: PPB (converted)
# [34] = test system: Mus musculus; test: Toxicity in NOD-SCID mouse xenografted with human Raji cells assessed as mortality at 40 mg/kg, po administered for 25 days; assay type: organism-based; conditions: in vivo, 600 h, time 25 day
# [35] = in vitro; conditions: human, Caco-2; remark: listed apart in the source
# Description: Efflux ratio of apparent permeability across basolateral to apical side over apical to basolateral side in human Caco-2 cells
# [36] = Plasma protein binding in rat at 1 uM incubated for 5 hrs by LC-MS analysis; assay type: ADME, cell-free; conditions: read-out: PPB (converted)
# [37] = test system: Raji; test: Antitumor activity against human Raji cells xenografted in NOD-SCID mouse assessed as tumor growth inhibition at 40 mg/kg, po administered for 25 days; assay type: functional; conditions: 600 h, time 25 day, read-out: TGI
# [38] = test system: Mus musculus; test: Toxicity in NOD-SCID mouse xenografted with human Raji cells assessed as change in ALT level at 40 mg/kg, po administered for 25 days; assay type: organism-based; conditions: in vivo, 600 h, time 25 day
# [39] = Oral bioavailability in Sprague-Dawley rat at 15 mg/kg measured after 48 hrs by LC-MS analysis; assay type: ADME, organism-based; conditions: in vivo
# [40] = test system: Raji; test: Antiproliferative activity against human Raji cells assessed as cell growth inhibition incubated for 96 hrs by MTT assay; assay type: functional, cell-based
# [41] = in vitro; conditions: human, Caco-2; remark: listed apart in the source
# Description: Apparent permeability across apical to basolateral side in human Caco-2 cells incubated for 90 mins by LC-MS analysis
# [42] = Cmax in Sprague-Dawley rat at 15 mg/kg, po measured after 48 hrs by LC-MS analysis; assay type: ADME, organism-based; set-up: dose 15 mg/kg, time 48 hrs, route po; conditions: in vivo
# [43] = target: T1, Dihydroorotate dehydrogenase (quinone), mitochondrial; conditions: dose 100.0 nM, time 30.0 min
# [44] = test system: Mus musculus; test: Toxicity in NOD-SCID mouse xenografted with human Raji cells assessed as change in uric acid level at 40 mg/kg, po administered for 25 days; assay type: organism-based; conditions: in vivo, 600 h, time 25 day
# [45] = test system: MV4-11; test: Antiproliferative activity against human MV4-11 cells assessed as cell growth inhibition incubated for 96 hrs by MTT assay; assay type: functional, cell-based; conditions: MV4-11, 96 h
# [46] = test system: Raji; test: animal or person; conditions: Mus musculus, po, 600 h, read-out: TGI
# Description: Antitumor activity against human Raji cells xenografted in NOD-SCID mouse assessed as tumor growth inhibition at 1.5 mg/kg, po administered for 25 days
# [47] = test system: Mus musculus; test: Toxicity in NOD-SCID mouse xenografted with human Raji cells assessed as body weight loss at 1.5 mg/kg, po administered for 25 days; assay type: organism-based; conditions: in vivo, 600 h, time 25 day
# T1 sequence (Q02127 whole entry): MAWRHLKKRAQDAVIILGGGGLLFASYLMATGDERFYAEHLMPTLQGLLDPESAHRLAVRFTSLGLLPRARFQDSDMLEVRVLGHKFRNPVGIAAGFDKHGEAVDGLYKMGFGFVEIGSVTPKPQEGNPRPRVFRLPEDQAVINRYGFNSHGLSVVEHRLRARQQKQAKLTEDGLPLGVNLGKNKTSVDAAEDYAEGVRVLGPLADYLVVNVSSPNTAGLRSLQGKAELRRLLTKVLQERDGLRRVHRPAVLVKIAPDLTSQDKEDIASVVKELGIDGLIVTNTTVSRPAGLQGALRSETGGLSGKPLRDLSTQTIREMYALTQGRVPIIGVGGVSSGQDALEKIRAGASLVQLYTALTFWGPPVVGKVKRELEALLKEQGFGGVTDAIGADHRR
smiles,measurement,setting,value
C/C(O)=C(\C#N)C(=O)Nc1cc(O[C@@H](C)C(F)(F)F)c(C(=O)Nc2c(F)cccc2Cl)cc1F,half-life at 1 µM,[1],46.2 min
same,selectivity ratio,[2],37.2
same,clearance,[3],5 mL/min/kg
same,half-life at 1 µM,[4],139 min
same,CL/F,[5],11.7 mL/min/kg
same,"fraction unbound at 5 h, 10 µM",[6],0.017
same,IC50,[7],20 nM
same,Papp B→A at 1.5 h,[8],2.04 ×10⁻⁶ cm/s
same,Activity,[9],Non-Toxic
same,AUC(0-t) at 48 h,[10],21100 ng·h/mL
same,IC50,[11],6.9 nM
same,half-life,[12],522 min
same,IC50,[13],20 nM
same,AUC(0-t) at 48 h,[14],21500 ng·h/mL
same,IC50,[15],20 nM
same,Activity,[16],Non-Toxic
same,Activity,[17],Non-Toxic
same,IC50,[18],20 nM
same,Activity,[19],Non-Toxic
same,Activity,[20],Non-Toxic
same,half-life,[21],276 min
same,IC50,[22],20 nM
same,solubility,[23],5200 µg/mL
same,Activity,[24],Non-Toxic
same,Activity,[25],Non-Toxic
same,IC50,[26],511 nM
same,Activity,[27],Non-Toxic
same,Activity,[28],Non-Toxic
same,Tmax,[29],12 h
same,Activity,[30],Non-Toxic
same,IC50,[31],20 nM
same,half-life at 1 µM,[32],148 min
same,"fraction unbound at 5 h, 0.1 µM",[33],0.278
same,Activity,[34],Non-Toxic
same,efflux ratio,[35],7
same,"fraction unbound at 5 h, 1 µM",[36],0.057
same,inhibition in vivo at 40 mg/kg,[37],73.1%
same,Activity,[38],Non-Toxic
same,bioavailability,[39],32.8%
same,IC50,[40],13.7 nM
same,Papp A→B at 1.5 h,[41],0.29 ×10⁻⁶ cm/s
same,Cmax,[42],1320 ng/mL
same,inhibition,[43],93.6%
same,Activity,[44],Non-Toxic
same,IC50,[45],20 nM
CCn1c(CO)nn(-c2cc(O[C@@H](C)C(F)(F)F)c(C(=O)Nc3c(F)cccc3Cl)cc2F)c1=O,IC50,[26],1.1 nM
same,inhibition in vivo at 1.5 mg/kg,[46],79%
same,IC50,[40],0.4 nM
same,Activity,[47],Toxic
